Read-outs that look alike come from different tables or passages of the source.
Legend:
Abcc6−/− mice = test system: Abcc6−/− mice
Protocol: The calcium content of heart tissue was determined.
(§1) All animals were housed in approved animal facilities at the Research Center for Natural Sciences, Hungarian Academy of Sciences. Mice were kept under routine laboratory conditions with 12 hour light-dark cycle with ad libitum access to water and chow. The RCNS, Hungarian Academy of Sciences Institutional Animal Care and Use Committees approved this study. Experiments have been conducted according to national guidelines. Cryo injury was performed and tissue calcium content was determined as described by Brampton, et al. ((2014) Am J Pathol. 184, 159-70). Calcification of the vibrissae was studied by histochemistry following the method described Klement, et al. ((2005) Mol Cell Biol. 25, 8299-310. The number of calcified vibrissae (hair capsules) was counted independently and the onset of tiptoe walking phenotype was determined by two investigators in a blinded fashion.
Abcc6^−/− mice faithfully recapitulate human PXE, with calcifying lesions found in skin, eyes and blood vessels. A drawback of the Abcc6^−/− mice is the relatively late onset of the first lesions, making this model less convenient for rapid screening of new treatments.

[1] = test system: Tiptoe walking (ttw) mice
Protocol: as §1
Tiptoe walking (ttw) mice have an inactivating mutation in Enpp1 and represent a model for GACI.

## O.O.O.O.O.O.O.O.O.O.O=P([O-])([O-])OP(=O)([O-])[O-].[Na+].[Na+].[Na+].[Na+] [PPi, Sodium pyrophosphate tetrabasic decahydrate]
Abcc6−/− mice; IP delivery, 6 mg PPi/kg body weight for 7 days, Abcc6−/− mice, data not shown
  cardiac calcification (ICC) induced by cryo-injury: reduced
Abcc6−/− mice; PPi in drinking water, dose-dependent inhibition, FIG. 1
  PPi concentration giving maximal inhibition of ICC: 10 mM
[1]; 10 mM oral PPi during pregnancy and lactation and continued in pups after weaning, ttw mice, FIG. 3
  calcification of the dermal sheet surrounding the vibrissae: greatly reduced
[1]; PPi provided during lactation, ttw mice
  calcification of the dermal sheet surrounding the vibrissae: no significant impact
[1]; ttw pups treated with PPi only after weaning
  calcification of the dermal sheet surrounding the vibrissae: no different from the control-treated group

Source: patent US11504395B2, “Oral pyrophosphate for use in reducing tissue calcification” (Stichting Het Nederlands Kanker Instituut-Antoni van …, priority 2016, dated 2022)
